Measured values as given in patent US12662498B2 (priority 2017, dated 2026).

Test: ICH stability study of psilocybin batches (appearance, water content, purity, assay)
[1] = T = 1 month, 2-8° C., listed as 170231
[2] = T = 1 month, 25° C./60% RH, listed as 170231
[3] = T = 1 month, 40° C./75% RH, listed as 170231
[4] = T = 3 months, 2-8° C., listed as 170231
[5] = T = 3 months, 25° C./60% RH, listed as 170231
[6] = T = 3 months, 40° C./75% RH, listed as 170231

With `CN(C)CCc1c[nH]c2cccc(OP(=O)(O)O)c12` [Batch 170231] the “Assay by HPLC (on a dry basis)” value (T = 0) was 98.65% ^w/w % w/w, the “Impurities LT 0.05%” value (T = 0) was 0.22% and the “Impurities by HPLC: RRT0.69” value (T = 0) was “LT 0.05%”. The “Impurities by HPLC: RRT 1.49” value (T = 0) was 0.06%, the “Impurities by HPLC: RRT 1.62 (Psilocin)” value (T = 0) was 0.39% and the “Impurities by HPLC: RRT 1.70” value (T = 0) was 0.05%. The “Impurity at RRT 1.89” value (T = 0) was “LT 0.05%”, the “Impurity at RRT 2.45” value (T = 0) was “LT 0.05%” and the “Chemical Purity By HPLC” value (T = 0, listed as 170231) was 99.28%. For the same compound, the “Total Impurities” value (T = 0, listed as 170231) was 0.72%, the “Water content by loss on drying” value (T = 0, listed as 170231) was 0.32% ^w/w % w/w and the “Assay by HPLC (on a dry basis)” value (T = 1 month, 2-8° C.) was 98.76% ^w/w % w/w. For the same compound, the “Impurities LT 0.05%” value (T = 1 month, 2-8° C.) was 0.39%, the “Impurities by HPLC: RRT 1.49” value (T = 1 month, 2-8° C.) was 0.05% and the “Impurities by HPLC: RRT 1.62 (Psilocin)” value (T = 1 month, 2-8° C.) was 0.36%. For the same compound, the “Impurities by HPLC: RRT 1.70” value (T = 1 month, 2-8° C.) was “LT 0.05%”, the “Impurity at RRT 1.89” value (T = 1 month, 2-8° C.) was “LT 0.05%” and the “Impurity at RRT 2.45” value (T = 1 month, 2-8° C.) was “LT 0.05%”. The “Chemical Purity By HPLC” value [1] was 99.20%, the “Total Impurities” value [1] was 0.80% and the “Water content by loss on drying” value [1] was 0.27% ^w/w % w/w. The “Assay by HPLC (on a dry basis)” value (T = 1 month, 25° C./60% RH) was 97.98% ^w/w % w/w, the “Impurities LT 0.05%” value (T = 1 month, 25° C./60% RH) was 0.42% and the “Impurities by HPLC: RRT 1.49” value (T = 1 month, 25° C./60% RH) was 0.05%. The “Impurities by HPLC: RRT 1.62 (Psilocin)” value (T = 1 month, 25° C./60% RH) was 0.37%, the “Impurities by HPLC: RRT 1.70” value (T = 1 month, 25° C./60% RH) was “LT 0.05%” and the “Impurity at RRT 1.89” value (T = 1 month, 25° C./60% RH) was “LT 0.05%”. For the same compound, the “Impurity at RRT 2.45” value (T = 1 month, 25° C./60% RH) was “LT 0.05%”, the “Chemical Purity By HPLC” value [2] was 99.16% and the “Total Impurities” value [2] was 0.84%. The “Water content by loss on drying” value [2] was 0.17% ^w/w % w/w, the “Assay by HPLC (on a dry basis)” value (T = 1 month, 40° C./75% RH) was 98.52% ^w/w % w/w and the “Impurities LT 0.05%” value (T = 1 month, 40° C./75% RH) was 0.41%. For the same compound, the “Impurities by HPLC: RRT 1.49” value (T = 1 month, 40° C./75% RH) was 0.06%, the “Impurities by HPLC: RRT 1.62 (Psilocin)” value (T = 1 month, 40° C./75% RH) was 0.36% and the “Impurities by HPLC: RRT 1.70” value (T = 1 month, 40° C./75% RH) was “LT 0.05%”. For the same compound, the “Impurity at RRT 1.89” value (T = 1 month, 40° C./75% RH) was “LT 0.05%”, the “Impurity at RRT 2.45” value (T = 1 month, 40° C./75% RH) was “LT 0.05%” and the “Chemical Purity By HPLC” value [3] was 99.17%. The “Total Impurities” value [3] was 0.83%, the “Water content by loss on drying” value [3] was 0.19% ^w/w % w/w and the “Assay by HPLC (on a dry basis)” value (T = 3 months, 2-8° C.) was 98.45% ^w/w % w/w. The “Impurities LT 0.05%” value (T = 3 months, 2-8° C.) was 0.22%, the “Impurities by HPLC: RRT0.69” value (T = 3 months, 2-8° C.) was 0.05% and the “Impurities by HPLC: RRT 1.49” value (T = 3 months, 2-8° C.) was 0.05%. The “Impurities by HPLC: RRT 1.62 (Psilocin)” value (T = 3 months, 2-8° C.) was 0.37%, the “Impurities by HPLC: RRT 1.70” value (T = 3 months, 2-8° C.) was “LT 0.05%” and the “Impurity at RRT 1.89” value (T = 3 months, 2-8° C.) was “LT 0.05%”. For the same compound, the “Impurity at RRT 2.45” value (T = 3 months, 2-8° C.) was “LT 0.05%”, the “Chemical Purity By HPLC” value [4] was 99.30% and the “Total Impurities” value [4] was 0.70%. The “Water content by loss on drying” value [4] was 0.17% ^w/w % w/w, the “Assay by HPLC (on a dry basis)” value (T = 3 months, 25° C./60% RH) was 99.46% ^w/w % w/w and the “Impurities LT 0.05%” value (T = 3 months, 25° C./60% RH) was 0.27%. For the same compound, the “Impurities by HPLC: RRT0.69” value (T = 3 months, 25° C./60% RH) was “LT 0.05%”, the “Impurities by HPLC: RRT 1.49” value (T = 3 months, 25° C./60% RH) was 0.05% and the “Impurities by HPLC: RRT 1.62 (Psilocin)” value (T = 3 months, 25° C./60% RH) was 0.36%. The “Impurities by HPLC: RRT 1.70” value (T = 3 months, 25° C./60% RH) was “LT 0.05%”, the “Impurity at RRT 1.89” value (T = 3 months, 25° C./60% RH) was “LT 0.05%” and the “Impurity at RRT 2.45” value (T = 3 months, 25° C./60% RH) was “LT 0.05%”. The “Chemical Purity By HPLC” value [5] was 99.31%, the “Total Impurities” value [5] was 0.69% and the “Water content by loss on drying” value [5] was 0.01% ^w/w % w/w. For the same compound, the “Assay by HPLC (on a dry basis)” value (T = 3 months, 40° C./75% RH) was 98.64% ^w/w % w/w, the “Impurities LT 0.05%” value (T = 3 months, 40° C./75% RH) was 0.34% and the “Impurities by HPLC: RRT0.69” value (T = 3 months, 40° C./75% RH) was “LT 0.05%”. For the same compound, the “Impurities by HPLC: RRT 1.49” value (T = 3 months, 40° C./75% RH) was 0.06%, the “Impurities by HPLC: RRT 1.62 (Psilocin)” value (T = 3 months, 40° C./75% RH) was 0.39% and the “Impurities by HPLC: RRT 1.70” value (T = 3 months, 40° C./75% RH) was “LT 0.05%”. The “Impurity at RRT 1.89” value (T = 3 months, 40° C./75% RH) was “LT 0.05%”, the “Impurity at RRT 2.45” value (T = 3 months, 40° C./75% RH) was “LT 0.05%” and the “Chemical Purity By HPLC” value [6] was 99.17%. For the same compound, the “Total Impurities” value [6] was 0.79%, the “Water content by loss on drying” value [6] was 0.19% ^w/w % w/w and the Appearance (T = 6 months, 2-8° C.) was “An off white solid”. The “Assay by HPLC (on a dry basis)” value (T = 6 months, 2-8° C.) was 97.97% ^w/w % w/w, the “Chemical Purity By HPLC” value (T = 6 months, 2-8° C.) was 99.20% and the “Impurities LT 0.05%” value (T = 6 months, 2-8° C.) was 0.32%. The “Impurities by HPLC: RRT0.69” value (T = 6 months, 2-8° C.) was 0.06% and the “Impurities by HPLC: RRT 1.49” value (T = 6 months, 2-8° C.) was “LT 0.05%”.
